Reference: patent US7767685B2, “Adenosine A2B receptor antagonists” (King Pharmaceuticals Research and Development, Inc., priority 2006, dated 2010)

Legend:
[1] = biological target: T1, human A2B adenosine receptors (Homo sapiens, UniProt P29275); assay: Displacement of [3H]MRE2029F20 binding at human A2B adenosine receptors; settings: [3H]MRE2029F20 displacement, human A2B receptors (footnote: HEK293 cells; method: CHO cells), n = 3-6; geometric mean (95% confidence limits); read-out: Ki hA2B
T1 construct: expressed in transfected cells; host or cells: CHO cells (whole cells)
T1 sequence (P29275 1-332): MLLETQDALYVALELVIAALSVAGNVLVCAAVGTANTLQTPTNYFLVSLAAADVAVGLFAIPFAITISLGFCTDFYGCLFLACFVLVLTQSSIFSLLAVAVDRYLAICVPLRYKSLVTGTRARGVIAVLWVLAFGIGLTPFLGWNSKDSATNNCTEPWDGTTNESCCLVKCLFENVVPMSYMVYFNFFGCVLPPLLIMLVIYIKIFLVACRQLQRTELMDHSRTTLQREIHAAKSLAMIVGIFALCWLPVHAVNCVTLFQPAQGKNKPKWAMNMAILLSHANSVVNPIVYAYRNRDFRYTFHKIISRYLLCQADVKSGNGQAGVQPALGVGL
Protocol: […] (Naunyn-Schmied. Arch Pharm. 1998, 357: 1-9). Briefly, the cells are grown adherently and maintained in Dulbecco's Modified Eagles Medium with nutrient mixture F12 (DMEM/F12) without nucleosides, containing 10% fetal calf serum, penicillin (100 U/mL), streptomycin (100 μg/mL), L-glutamine (2 mM) and Geneticin (G418, 0.2 mg/ml) at 37° C. in 5% CO2/95% air. For membrane preparation the culture medium is removed and the cells are washed with phosphate-buffered saline and scraped off T75 flasks in ice-cold hypo tonic buffer (5 mM Tris HCl, 1 mM EDTA, pH 7.4). The cell suspension is homogenized with Polytron, the homogenate is spun for 10 min at 1000×g and the supernatant is then centrifuged for 30 min at 100,000×g. The membrane pellet is suspended in 50 mM Tris HCl buffer (pH 7.4) for A1 adenosine receptors, in 50 mM Tris HCl, 10 mM MgCl2 (pH 7.4) for A2A adenosine receptors, in 50 mM Tris HCl, 10 mM MgCl2, 1 mM EDTA (pH 7.4) for A2B and A3 adenosine receptors.
All new synthesized compounds have been tested to evaluate their affinity to human A1, A2A, A2B and A3 adenosine receptors. […] Pharmacol., 2000, 57: 968-975). Non-specific binding is determined in the presence of 10 μM of CHA and this is always ≦10% of the total binding. […] recombinant A2A adenosine receptors is performed using a suspension of membranes (50 μg of protein/assay) and at least 6-8 different concentrations of studied antagonists for an incubation time of 60 min at 4° C. Non-specific binding is determined in the presence of 1 μM ZM 241385 and is about 20% of total binding. […] Non-specific binding is defined as binding in the presence of 1 μM MRE 3029F20 and is about 25% of total binding. […] Non-specific binding is defined as binding in the presence of 1 μM MRE 3008F20 and is about 25% of total binding. Bound and free radioactivity are separated by filtering the assay mixture through Whatman GF/B glass fiber filters using a Micro-Mate 196 cell harvester (Packard Instrument Co.). The filter bound radioactivity is counted on a Top Count (efficiency 57%) with Micro-Scint 20.
(§1) The protein concentration is determined according to a Bio-Rad method (Bradford, Anal Biochem. 1976, 72: 248-254) with bovine albumin as a standard reference. Inhibitory binding constant, Ki, values are calculated from those of IC50 according to Cheng & Prusoff equation (Biochem. Pharmacol 1973, 22: 3099-3108): Ki=IC50/(1+[C*]/KD*) where [C*] is the concentration of the radioligand and KD* its dissociation constant. A weighted non linear least-squares curve fitting program LIGAND (Munson et al., Anal. Biochem 1980, 107: 220-239) is used for computer analysis of inhibition experiments Data are expressed as geometric mean with 95% confidence limits in parentheses. Examples of Animal Models

[2] = biological target: T1, human A2B adenosine receptors; assay: cAMP assay in CHO cells expressing human A2B adenosine receptors (antagonism of NECA-induced cAMP); assay type: cell-based; settings: antagonism of NECA (100 nM)-induced cAMP, geometric mean (95% confidence limits), read-out: IC50 hA2B (cAMP assay)
Protocol: Measurement of Cyclic AMP Levels in CHO Cells Transfected with Human A2B Adenosine Receptors
CHO cells transfected with human A2B adenosine receptors are washed with phosphate-buffered saline, diluted trypsine and centrifuged for 10 min at 200 g. The pellet containing the CHO cells (1×10^6 cells/assay) is suspended in 0.5 mL of incubation mixture: NaCl 150 mM, KCl 2.7 mM, NaH2PO4 0.37 mM, MgSO4 1 mM, CaCl2 1 mM, Hepes 5 mM, MgCl2 10 mM, glucose 5 mM, pH 7.4 at 37° C. Then 2.0 IU/mL adenosine deaminase and 0.5 mM 4-(3-butoxy-4-methoxybenzyl)-2-imidazolidinone (Ro 20-1724) as phosphodiesterase inhibitor are added and preincubated for 10 min a shaking bath at 37° C. The potency of antagonists studied are determined by antagonism of NECA (100 nM)-induced stimulation of cyclic AMP levels. The reaction is terminated by the addition of cold 6% thrichloroacetic acid (TCA). The TCA suspension is centrifuged at 2000 g for 10 min at 4° C. and the supernatant is extracted four times with water saturated diethyl ether. The final aqueous solution is tested for cyclic AMP levels by a competition protein binding assay. Samples of cyclic AMP standard ([…]) are added to each test tube containing the incubation buffer (trizma base 0.1 M, aminophylline 8.0 mM, 2-mercaptoethanol 6.0 mM (pH 7.4) and [^3H]cyclic AMP in a total volume of 0.5 mL. The binding protein previously prepared from beef adrenals, is added to the samples previously incubated at 4° C. for 150 min, and after the addition of charcoal are centrifuged at 2000 g for 10 min. The clear supernatant is counted with 4 mL of Atomlight liquid scintillator and counted in a Tri Carb Packard 2500 TR scintillation counter.
as §1

Compound	Ki [1]	IC50 [2]
CCCn1c(=O)c2[nH]c(-c3cc(C)n(CC(=O)Nc4ccccc4)n3)nc2n(CCC)c1=O [Example 1, 2-[3-(2,6-Dioxo-1,3-dipropyl-2,3,6,7-tetrahydro-1H-purin-8-yl)-5-methyl-pyrazol-1-yl]-N-phenyl-acetamide]	0.015 µM	0.058 µM
CCCn1c(=O)c2[nH]c(-c3cc(C)n(CC(=O)Nc4ccc(Cl)c(Cl)c4)n3)nc2n(CCC)c1=O [Example 16, 2-[3-(2,6-Dioxo-1,3-dipropyl-2,3,6,7-tetrahydro-1H-purin-8-yl)-5-methyl-pyrazol-1-yl]-N-(3,4-dichlorophenyl)-acetamide]	0.04 µM	0.188 µM
CCCn1c(=O)c2[nH]c(-c3cc(C)n(CC(=O)Nc4ccc(OC)c(OC)c4)n3)nc2n(CCC)c1=O [Example 8, 2-[3-(2,6-Dioxo-1,3-dipropyl-2,3,6,7-tetrahydro-1H-purin-8-yl)-5-methyl-pyrazol-1-yl]-N-(3,4-dimethoxyphenyl)-acetamide]	0.06 µM	0.222 µM
CCCn1c(=O)c2[nH]c(-c3cc(C)n(CC(=O)Nc4cccc(OC)c4)n3)nc2n(CCC)c1=O [Example 14, 2-[3-(2,6-Dioxo-1,3-dipropyl-2,3,6,7-tetrahydro-1H-purin-8-yl)-5-methyl-pyrazol-1-yl]-N-(3-methoxylphenyl)-acetamide]	0.065 µM	0.266 µM
CCCn1c(=O)c2[nH]c(-c3cc(C)n(CC(=O)Nc4ccc(C)cc4)n3)nc2n(CCC)c1=O [Example 17, 2-[3-(2,6-Dioxo-1,3-dipropyl-2,3,6,7-tetrahydro-1H-purin-8-yl)-5-methyl-pyrazol-1-yl]-N-p-tolyl-acetamide]	0.056 µM	0.212 µM
CCCn1c(=O)c2[nH]c(-c3nn(CC(=O)Nc4ccc(Cl)cc4)c(C)c3Cl)nc2n(CCC)c1=O [Example 18, 2-[4-Chloro-3-(2,6-dioxo-1,3-dipropyl-2,3,6,7-tetrahydro-1H-purin-8-yl)-5-methyl-pyrazol-1-yl]-N-(4-chlorophenyl)-acetamide]	0.222 µM	> 1 µM
CCCn1c(=O)c2[nH]c(-c3cc(C)n(CC(=O)Nc4ccc(OC)cc4)n3)nc2n(CCC)c1=O [Example 6, 2-[3-(2,6-Dioxo-1,3-dipropyl-2,3,6,7-tetrahydro-1H-purin-8-yl)-5-methyl-pyrazol-1-yl]-N-(4-methoxyphenyl)-acetamide]	0.012 µM	0.061 µM
CCCn1c(=O)c2[nH]c(-c3ccn(CC(=O)Nc4ccc(Cl)cc4)n3)nc2n(CCC)c1=O [Example 10, 2-[3-(2,6-Dioxo-1,3-dipropyl-2,3,6,7-tetrahydro-1H-purin-8-yl)-pyrazol-1-yl]-N-(4-chloro-phenyl)-acetamide]	0.02 µM	0.08 µM
CCCn1c(=O)c2[nH]c(-c3cc(C)n(CC(=O)Nc4ccc(C(C)CC)cc4)n3)nc2n(CCC)c1=O (stereo not shown) [Example 12, 2-[3-(2,6-Dioxo-1,3-dipropyl-2,3,6,7-tetrahydro-1H-purin-8-yl)-5-methyl-pyrazol-1-yl]-N-(4-sec-butylphenyl)-acetamide]	> 1 µM	> 1 µM
CCCn1c(=O)c2[nH]c(-c3cc(C)n(CC(=O)Nc4ccc(C)c(C)c4)n3)nc2n(CCC)c1=O [Example 7, 2-[3-(2,6-Dioxo-1,3-dipropyl-2,3,6,7-tetrahydro-1H-purin-8-yl)-5-methyl-pyrazol-1-yl]-N-(3,4-dimethylphenyl)-acetamide]	0.048 µM	0.2 µM
CCCn1c(=O)c2[nH]c(-c3cc(C)n(CC(=O)Nc4cccc(Cl)c4)n3)nc2n(CCC)c1=O [Example 15, 2-[3-(2,6-Dioxo-1,3-dipropyl-2,3,6,7-tetrahydro-1H-purin-8-yl)-5-methyl-pyrazol-1-yl]-N-(3-chlorophenyl)-acetamide]	0.028 µM	0.106 µM
CCCn1c(=O)c2[nH]c(-c3cc(C)n(CC(=O)Nc4ccc(F)cc4)n3)nc2n(CCC)c1=O [Example 5, 2-[3-(2,6-Dioxo-1,3-dipropyl-2,3,6,7-tetrahydro-1H-purin-8-yl)-5-methyl-pyrazol-1-yl]-N-(4-fluoro-phenyl)-acetamide]	0.014 µM	0.068 µM
CCCn1c(=O)c2[nH]c(-c3nn(CC(=O)Nc4ccc(Cl)cc4)c(C)c3Br)nc2n(CCC)c1=O [Example 19, 2-[4-Bromo-3-(2,6-dioxo-1,3-dipropyl-2,3,6,7-tetrahydro-1H-purin-8-yl)-5-methyl-pyrazol-1-yl]-N-(4-chlorophenyl)-acetamide]	0.25 µM	> 1 µM
CCCn1c(=O)c2[nH]c(-c3cc(C)n(CC(=O)Nc4ccc(I)cc4)n3)nc2n(CCC)c1=O [Example 2, 2-[3-(2,6-Dioxo-1,3-dipropyl-2,3,6,7-tetrahydro-1H-purin-8-yl)-5-methyl-pyrazol-1-yl]-N-(4-iodophenyl)-acetamide]	0.028 µM	0.115 µM
